# From article PMC5583658, “6,7-dimethoxy-1,2,3,4-tetrahydro-isoquinoline-3-carboxylic acid attenuates heptatocellular carcinoma in rats with NMR-based metabolic perturbations” (Future Science OA, 2017)
# How the values were obtained:
# Assay type in all cases: in vivo, albino Wistar rats
# [1] = tested on: diethylnitrosamine-induced hepatocarcinogenic rats; assay: ALT and AST in plasma of DEN-induced HCC rats; details: DEN+5-FU 10 mg/kg intraperitoneally, 15 days, mean ± SD, n = 6
# Experimental: (§1) All animals were randomly divided into five groups of six animals each. Drugs were suspended in 0.25% CMC, subjected to 28 days’ treatment orally and divided as follows: Group I: 0.25% CMC (2 ml/kg), Group II: DEN (8 mg/kg, intraperitoneally), Group III: DEN+5-fluorouracil (5-FU, 10 mg/kg, intraperitoneally), Group IV: DEN+M1 (50 mg/kg, orally) and Group V: DEN+M1 (100 mg/kg, orally). The procedure to induce HCC was adopted from a paper by Song et al. where it is shown that DEN produces HCC at 8 mg/kg intraperitoneal injection for 28 days to albino Wistar rats. After initial 1 week of adaptive inhabitation, all rats of group II–V were administered with DEN (8 mg/kg, intraperitoneally) for 28 days. After 28 days, 5-FU and M1 were given for 15 days as mentioned above for group III–V. At the end of the experimental period, animals were sacrificed by cervical decapitation and livers were dissected out immediately, rinsed in ice cold saline and stored at -20°C for further studies. The serum was collected, processed and stored for further analysis.
# (§2) Liver function biomarkers like aspartate aminotransferase (AST), alanine aminotransferase (ALT) were also measured in serum using commercially available kit from Ebra Diagonesis Pvt Ltd, Germany. The oxidative parameters like superoxide dismutase (SOD), thiobarbituric acid reactive substances (TBARS), protein carbonyl (PC), SOD [14], tissue catalase (CAT) and glutathione (GSH) levels were estimated in liver tissue in the similar experiment. The total protein content of each sample was measured using the Bradford reagent and bovine serum albumin was used as a standard. Conjugated bilirubin and biliverdin in liver were measured as per the following procedure stated earlier in the literature with slight modifications.
# [2] = tested on: diethylnitrosamine-induced hepatocarcinogenic rats; assay: Oxidative stress parameters (SOD, CAT, GSH, PC, MDA) in liver of DEN-induced HCC rats; details: DEN+5-FU 10 mg/kg intraperitoneally, 15 days, mean ± SD, n = 6
# Experimental: as §1, §2
# [3] = tested on: diethylnitrosamine-induced hepatocarcinogenic rats; assay: Bilirubin and biliverdin in liver of DEN-induced HCC rats
# Experimental: as §1, §2
# [4] = tested on: diethylnitrosamine-induced hepatocarcinogenic rats; assay: Histopathological studies of liver (hematoxylin and eosin); details: DEN+5-FU 10 mg/kg intraperitoneally; 40X
# Experimental: as §1
# Histopathological studies were also performed to find out the morphological changes of liver cells after M1 administration. Liver tissues from each group were assessed for their morphological changes using hematoxylin and eosin staining. The tissues were preserved in 10% formalin overnight. […]
# [5] = tested on: diethylnitrosamine-induced hepatocarcinogenic rats; assay: 1H-NMR-based serum metabolic profiling; details: rat serum; DEN+5-FU 10 mg/kg intraperitoneally
# Experimental: as §1
# All serum samples were thawed at room temperature, 250 μl of serum was taken and mixed with 250 μl of 0.9% saline sodium-phosphate buffer of strength 50 mM, pH 7.4 prepared in D2O. Then, the samples were centrifuged at 10,000 rpm for 5 min to remove any precipitates before acquiring the NMR data. A total 400 μl of the supernatant sample was used in 5 mm NMR tubes (Wilmad Glass, USA) for data acquisition with a co-axial insert containing the known concentration of TSP (sodium salt of 3-trimethylsilyl-(2,2,3,3-d4)-propionic acid) i.e. 0.1% was used as external standard reference to aid metabolite quantification for NMR experiment. Deuterium oxide (D2O; as a co-solvent and to provide a deuterium field/frequency lock) and sodium salt of trimethylsilylpropionic acid-d4 (TSP) used for NMR experiments, were purchased from Sigma-Aldrich (RI, USA).
# All NMR spectra were recorded at 298 K on Bruker Biospin Avance-III 800 MHz NMR spectrometer operating at proton frequency of 800.21 MHz, equipped with CryoProbe and an actively shielded gradient unit with a maximum gradient-strength output of […]. The raw NMR data were processed in Topspin-2.1 (Bruker NMR data Processing Software). For each serum sample, one-dimensional ^1H-NMR and diffusion edited ^1H NMR spectra were recorded using the Carr–Purcell–Meiboom–Gill (CPMG) pulse sequence (cpmgpr1d, standard Bruker pulse program) with pre-saturation of the water peak through irradiating it continuously during the recycle delay (RD) of 5 sec, and the bipolar pulse pair longitudinal eddy current delay (BPP-LED) sequence, respectively. Each CPMG spectrum consisted of the accumulation of 128 scans and lasted for approximately 15 minutes. To remove broad signals from triglycerides, proteins, cholesterols and phospholipids, a total spin–spin relaxation time of 60 ms (n = 300 and 2τ=[…]) with a line broadening factor of 0.3 Hz was applied. For diffusion edited (DE)^1H NMR pulse sequence, the square gradients of 70% of the maximum gradient strength (56 G/cm) and 2 ms duration (followed by a delay of 200 μs to allow for the decay of eddy currents) were used. Diffusion time of 120 ms was used to attenuate the signals from low molecular weight compounds without affecting the lipid signals. All the spectra were processed using Topspin-2.1 (Bruker NMR data Processing Software) using standard Fourier Transformation (FT) procedure following manual phase and baseline-correction. Prior to FT, each FID was zero-filled to 4096 data points and a sine-bell apodisation function was applied. After FT, the chemical shifts were referenced internally to methyl peak of L-lactate (at δ=1.33 ppm). All recorded spectra were visually inspected for acceptability and subjected to multivariate statistical analysis to identify the altered metabolic pattern. […]
# [6] = DEN+5-FU 10 mg/kg intraperitoneally, 15 days, mean ± SD, n = 6
smiles,measurement,setting,value
"O=c1[nH]cc(F)c(=O)[nH]1 [5-FU, 5-fluorouracil, reference compound]",ALT,[1],68.36 ± 5.32 U/L
same,AST,[1],61.58 ± 4.17 U/L
same,CAT,[2],9.30 ± 0.35 nM of H2O2/min/μg of protein
same,MDA,[2],46.24 ± 0.26 nM/μg of protein
same,PC,[2],0.35 ± 0.07 μM/μg of protein
same,Reduced GSH,[2],7.30 ± 0.39 μM/μg of protein
same,SOD,[2],6.99 ± 0.43 U/μg of protein
same,bilirubin level,"[3]; 5-FU-treated rats, text value (toxic ∼60 ng)",~35 ng
same,Bilirubin,[3]; [6],34.70 ± 2.12 ng/μg of protein
same,Biliverdin,[3]; [6],18.39 ± 3.11 ng/μg of protein
same,liver histopathology,[4],less ruptured and denatured cells (RC and DC) than toxic control
same,Variation with respect to DEN: Acac (chemical shift 2.28),[5],↑
same,Variation with respect to DEN: Ace (chemical shift 1.92),[5],↓
same,Variation with respect to DEN: Acet (chemical shift 2.23),[5],↑
same,Variation with respect to DEN: Ala (chemical shift 1.48),[5],↓
same,Variation with respect to DEN: Betaine (chemical shift 3.265),[5],↓
same,Variation with respect to DEN: Chol (chemical shift 3.22),[5],↓
same,Variation with respect to DEN: Cr (chemical shift 3.03),[5],↑
same,"Variation with respect to DEN: Glucose (chemical shift 3.23–3.92, 4.63, 5.21)",[5],↓
same,Variation with respect to DEN: L1 (LDL) (chemical shift 0.83–0.87),[5],↓
same,Variation with respect to DEN: L2 (VLDL) (chemical shift 0.87–0.90),[5],↑
same,Variation with respect to DEN: L3 (LDL) (chemical shift 1.23–1.27),[5],↓
same,Variation with respect to DEN: L4 (VLDL) (chemical shift 1.27–1.30),[5],↑
same,Variation with respect to DEN: L6 (chemical shift 2.00),[5],↓
same,Variation with respect to DEN: L8 (chemical shift 2.74),[5],↓
same,Variation with respect to DEN: L9 (chemical shift 5.28),[5],↓
same,Variation with respect to DEN: Lys (chemical shift 1.89),[5],↓
same,Variation with respect to DEN: NAG (chemical shift 2.02),[5],↑
same,Variation with respect to DEN: OAG (chemical shift 2.13),[5],↑
same,Variation with respect to DEN: Pyr (chemical shift 2.37),[5],↓
same,Variation with respect to DEN: Tyr (chemical shift 6.89),[5],↓
